Source: US9096605B2, “Pyrazolopyrimidine derivatives as PI3 kinase inhibitors” (GlaxoSmithKline LLC, priority 2011, dated 2015)
pIC50: −log10 of the molar value.

Assays:
PI3K-beta = biological target: T1, PI3K-beta (Homo sapiens, UniProt P42338); assay: HTRF in vitro profiling assay for PI3K inhibition (beta isoform); assay type: biochemical; conditions: PI3K-beta enzyme pIC50 range, 200 pM enzyme, 100 uM ATP, 10 uM PIP2, 150 mM NaCl, corrected pIC50, read-out: PI3K-b Enz Activity
T1 construct: made in house
T1 sequence (P42338 whole entry, canonical isoform): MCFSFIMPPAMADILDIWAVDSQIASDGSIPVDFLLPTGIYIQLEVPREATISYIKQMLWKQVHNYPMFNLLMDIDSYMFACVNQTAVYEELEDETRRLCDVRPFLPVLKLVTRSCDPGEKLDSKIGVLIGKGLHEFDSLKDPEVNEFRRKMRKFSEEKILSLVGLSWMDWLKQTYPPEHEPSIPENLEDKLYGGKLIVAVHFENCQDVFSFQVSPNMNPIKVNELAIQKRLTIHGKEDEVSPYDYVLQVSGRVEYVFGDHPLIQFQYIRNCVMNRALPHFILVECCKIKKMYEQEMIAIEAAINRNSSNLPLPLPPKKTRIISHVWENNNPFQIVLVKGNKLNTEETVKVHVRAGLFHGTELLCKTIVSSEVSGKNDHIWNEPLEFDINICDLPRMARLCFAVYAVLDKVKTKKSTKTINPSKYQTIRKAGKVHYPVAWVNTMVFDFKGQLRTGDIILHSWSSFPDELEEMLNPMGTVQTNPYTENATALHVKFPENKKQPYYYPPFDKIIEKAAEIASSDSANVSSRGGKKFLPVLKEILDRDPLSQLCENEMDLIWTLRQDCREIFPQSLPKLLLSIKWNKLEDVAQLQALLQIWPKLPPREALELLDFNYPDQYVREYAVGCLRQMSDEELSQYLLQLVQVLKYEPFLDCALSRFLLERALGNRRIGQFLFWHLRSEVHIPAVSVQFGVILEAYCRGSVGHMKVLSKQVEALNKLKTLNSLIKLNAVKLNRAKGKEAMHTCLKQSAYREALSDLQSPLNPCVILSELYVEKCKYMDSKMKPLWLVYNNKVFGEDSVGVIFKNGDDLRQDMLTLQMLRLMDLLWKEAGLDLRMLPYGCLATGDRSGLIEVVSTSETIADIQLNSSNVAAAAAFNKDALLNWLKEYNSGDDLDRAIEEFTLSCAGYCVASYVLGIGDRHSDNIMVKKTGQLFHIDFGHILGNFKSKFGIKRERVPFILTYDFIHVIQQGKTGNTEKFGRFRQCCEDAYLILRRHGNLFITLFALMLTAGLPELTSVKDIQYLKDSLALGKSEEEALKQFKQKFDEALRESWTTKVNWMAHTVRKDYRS
T1 sequence (P27986 whole entry partner, canonical isoform): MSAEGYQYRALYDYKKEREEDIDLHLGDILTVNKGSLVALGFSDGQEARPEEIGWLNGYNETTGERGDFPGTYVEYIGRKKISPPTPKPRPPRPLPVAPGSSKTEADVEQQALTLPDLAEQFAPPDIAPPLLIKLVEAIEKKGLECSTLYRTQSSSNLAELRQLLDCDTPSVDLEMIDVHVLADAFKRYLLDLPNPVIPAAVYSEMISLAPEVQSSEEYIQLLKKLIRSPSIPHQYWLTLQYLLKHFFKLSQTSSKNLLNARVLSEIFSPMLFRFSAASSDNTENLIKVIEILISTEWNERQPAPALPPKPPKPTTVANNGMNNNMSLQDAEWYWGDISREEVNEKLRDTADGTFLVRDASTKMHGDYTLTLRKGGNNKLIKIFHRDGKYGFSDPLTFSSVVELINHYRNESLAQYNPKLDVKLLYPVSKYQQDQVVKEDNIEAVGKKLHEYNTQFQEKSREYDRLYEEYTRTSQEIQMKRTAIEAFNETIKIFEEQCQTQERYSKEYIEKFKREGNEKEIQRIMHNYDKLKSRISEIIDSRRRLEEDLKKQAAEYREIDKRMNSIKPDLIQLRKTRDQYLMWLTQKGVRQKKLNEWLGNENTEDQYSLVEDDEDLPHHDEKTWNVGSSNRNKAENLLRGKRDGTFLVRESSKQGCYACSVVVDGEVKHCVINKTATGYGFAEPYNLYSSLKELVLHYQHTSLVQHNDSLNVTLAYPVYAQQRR
Text: HTRF In Vitro Profiling Assays for PI3K Inhibition
The PI3-Kinase profiling assays were developed to measure the compound-dependent inhibition of the alpha, beta, delta, and gamma isoforms of PI3K in an in vitro catalytic assay. This assay was developed and optimized from a kit produced by Upstate (Millipore catalog #33-017). Briefly, this procedure utilizes a pre-formed HTRF (Homogeneous Time-Resolved Fluorescence energy transfer) complex between four binding partners: 1) biotinylated PIP3, 2) GST tagged pleckstrin homology (PH) domain, 3) Europium labeled anti-GST monoclonal antibody, and 4) Streptavidin-Allophycocyanin (APC). The native PIP3 produced by PI 3-Kinase activity displaces biotin-PIP3 from the PH domain, resulting in the dissociation of the HTRF complex and a decrease in the fluorescence signal. The format of this assay is the same for all 4 isoforms of PI3K; the differences lie in the concentration of enzyme used to achieve the most robust signal. The alpha and delta assays are run at 400 pM enzyme; the beta assay is at 200 pM enzyme and the gamma assay is run at 1 nM enzyme. In addition, the alpha, beta and delta assays are run with 150 mM NaCl while the gamma assay is run in the absence of NaCl. The ATP concentration is 100 uM in the alpha, beta, and delta assays and 15 uM ATP in the gamma assay. All reactions are run at 10 uM PIP2
Compounds are serially diluted (3-fold in 100% DMSO) across a 384-well polypropylene mother plate from column 1 to column 12 and column 13 to column 24, to yield 11 concentrations for each test compound. Columns 6 and 18 contain only DMSO. Once titrations are made, […] is transferred to a 384-well low-volume assay plate (Greiner 784076). This assay plate contains three pharmacological controls (known PI3K inhibitors) and 3 assay controls: (1) Enzyme without inhibitor; (2) Buffer minus enzyme, and (3) Buffer minus enzyme plus native PIP3. DMSO is stamped into all wells of columns 6 and 18. PIP3 is added at 40 μM in 1× Reaction buffer (1 μL of 200 μM PIP3) to alternating rows of column 18 (wells 18 B, D, F, H, J, L, N, P). The no-enzyme control reactions are run in wells 18 A, C, E, G, I, K, M, O (0.1 μL of 100% DMSO).
The PI3-Kinase profiling assay was optimized using the HTRF kit provided by Upstate (Millipore). The assay kit contains seven reagents: 1) 4× Reaction Buffer; 2) native PIP2 (substrate); 3) Stop A (EDTA); 4) Stop B (Biotin-PIP3); 5) Detection Mix A (Streptavidin-APC); 6) Detection Mix B (Eu-labeled Anti-GST plus GST-tagged PH-domain); 7) Detection Mix C (KF). In addition, the following items were obtained or purchased: PI3Kinase (prepared by GSK BR&AD), dithiothreitol (Sigma, D-5545), Adenosine-5′-triphosphate (ATP, Teknova cat. # A0220), native PIP3 (1,2-dioctanoyl-sn-glycero-3-[phosphoinositil-3,4,5-triphosphate]tetraammonium salt (Avanti polar lipids, 850186P), DMSO (Sigma, 472301).
PI3Kinase Reaction Buffer is prepared by diluting the stock 1:4 with de-ionized water. Freshly prepared DTT is added at a final concentration of 5 mM on the day of use. Enzyme addition and compound pre-incubation are initiated by the addition of 2.5 μL of PI3K (at twice its final concentration) in 1× reaction buffer to all wells using a Multidrop Combi. Plates are incubated at room temperature for 15 minutes. Reactions are initiated by addition of 2.5 μL of 2× substrate solution (PIP2 and ATP in 1× reaction buffer) using a Multidrop Combi. Plates are incubated at room temperature for one hour. Reactions are quenched by the addition of 2.5 μL of stop solution (Stop A and Stop B pre-mixed at a ratio of 5:1, respectively) to all wells using the Multidrop Combi. […]

[1] = tested on: pAKT(Ser473) in MDA-MB-468 cells; assay: pAKT(Ser473) assay in MDA-MB-468 cells; assay type: cell-based; conditions: Homo sapiens, 0.5 h, compound treatment 30 minutes, MSD ELISA phospho AKT(Ser473), given as ranges, read-out: Cell Activity—pAKT IC50 in MDA-MB-468
Experimental: pAKT(Ser473) Assay in MDA-MB-468 Cells
MDA-MB-468 cells were plated in 384-well flat clear bottom tissue culture plates (Corning #3701) at a density of 5000 cells per 0.057 cm2 in 48 ul of RPMI 1640 media supplemented with 10% fetal bovine serum (FBS). Cells were seeded with a Wellmate liquid handler (Matrix). Columns 1 through 23 were plated with cells and column 24 contained media alone. Cells were incubated at 37° C. with 5% CO2 for approximately 16-20 hours. Duplicate compound plates were prepared in 384-well polypropylene V-Bottom plates (Greiner #781280).
Compound titrations were made across the columns (A1-A20). 20 ul of compound was added to the first column and diluted into a 20 point curve with dimethylsulfoxide (DMSO, Thermo #TS2064) using a 2-fold dilution factor with a liquid handling robot (Hamilton). Columns 22 through 24 contained DMSO alone. Titrations were diluted 682-fold for compound treatment with 4 ul of compound added to 105 ul of RPMI media. Two ul of the diluted compound was added to the cell plates containing 48 ul of media using a multimek robot (Beckman Coulter). Final DMSO concentrations were 0.15%. Cells were treated with compound for 30 minutes at 37° C. with 5% CO2.
Following incubation, media was aspirated from dosed cell plates using an ELx405 plate washer (Bio-Tek) and 25 ul of 4° C. Meso Scale Discovery (MSD) lysis buffer with the addition of protease and phosphatase inhibitors (supplied in MSD kit #N31CB-1) was added to each well using a multidrop combi (Thermo). Precoated 4-spot per well MSD ELISA plates coated with total and phospho AKT(Ser473) antibody and BSA (supplied in kit) were blocked for 1 hour at room temperature with 35 ul per well of 1× MSD wash buffer+3% BSA (supplied in kit).
Blocked plates were washed 4 times with 100 ul per well of 1× Tris wash buffer (supplied in MSD kit) using an Elx405 plate washer (Bio-Tek). To each well, 20 ul of cell lysate was added using a multimek robot (Beckman Coulter) and the plate incubated at 4° C. overnight (˜12-24 hours). Following incubation, the ELISA plates were washed 4 times (100 ul/well) with 1× Tris wash buffer. Twenty microliters per well of 1× detection antibody (supplied in MSD kit) was added using a multidrop combi (Thermo), followed by a 2 hour incubation at room temperature. Detection antibody was aspirated and the plates washed 4 times (100 ul/well) with 1× Tris wash buffer. Read Buffer (supplied in MSD kit) was added at 1× (35 ul/well) at room temperature using a multidrop (Thermo). Relative luminescence units (RLU) were determined using a SECTOR™ Imager 6000 with MSD Workbench Software.
Concentration Response Curves for pAKT(Ser473):
For analysis of the pAKT(Ser473) concentration response curves, the data was normalized using Phospho AKT values divided by the sum of corresponding Total AKT and Phospho AKT values. The normalized values are plotted as the percent of the DMSO-treated control values on the corresponding plate. To determine IC50 values, the data is fit to a 4 parameter nonlinear sigmoidal dose response (variable slope) using GraphPad Prism version 4 for Windows, (GraphPad Software, San Diego Calif. USA). Criteria for curve fitting and IC50 determination include that the IC50 values from duplicate runs must be within 2 to 3-fold of each other, the Y min must be less than or equal to 30% of the DMSO-treated control and the Y max must range between 80-120%. Any data point equal to or greater than 40% of the curve was not utilized.

pIC50 (PI3K-beta) | pIC50 [1] | SMILES
5.90 to 6.90 | < 4.70 | Cc1c(Cc2cccc(Cl)c2Cl)c2nc(-c3ccncc3)cc(=O)n2n1C [Example 33, 3-(2,3-dichlorobenzyl)-1,2-dimethyl-5-(pyridin-4-yl)pyrazolo[1,5-a]pyrimidin-7(1H)-one]
8.00 to 8.90 | 5.00 to 5.22 | Cc1nn2c(O)cc(C3CCOCC3)nc2c1Cc1cccc(C(F)(F)F)c1C [Example 4, 2-methyl-3-(2-methyl-3-(trifluoromethyl)benzyl)-5-(tetrahydro-2H-pyran-4-yl)pyrazolo[1,5-a]pyrimidin-7-ol]
8.00 to 8.90 | > 6.00 | Cc1c(Cc2c(N)nn3c(O)cc(C4CCOCC4)nc23)cccc1C(F)(F)F [Example 25, 2-amino-3-(2-methyl-3-(trifluoromethyl)benzyl)-5-(tetrahydro-2H-pyran-4-yl)pyrazolo[1,5-a]pyrimidin-7-ol]
7.00 to 7.90 | < 4.70 | Cc1nn2c(C(N)=O)cc(N3CCOCC3)nc2c1Cc1cccc(C(F)(F)F)c1C [Example 39, 2-methyl-3-(2-methyl-3-(trifluoromethyl)benzyl)-5-morpholinopyrazolo[1,5-a]pyrimidine-7-carboxamide]
8.00 to 8.90 | > 6.00 | Cc1nn2c(-c3cc[nH]n3)cc(N3CCOCC3)nc2c1Cc1cccc2ccccc12 [Example 42, 4-(2-methyl-3-(naphthalen-1-ylmethyl)-7-(1H-pyrazol-3-yl)pyrazolo[1,5-a]pyrimidin-5-yl)morpholine]
8.00 to 8.90 | 4.70 to 4.96 | COc1nn2c(O)cc(-c3ccncc3)nc2c1Cc1cccc(Cl)c1Cl [Example 35, 3-(2,3-dichlorobenzyl)-2-methoxy-5-(pyridin-4-yl)pyrazolo[1,5-a]pyrimidin-7-ol]
7.00 to 7.90 | > 6.00 | Cc1nn2c(C(N)=O)cc(N3CCOCC3)nc2c1Cc1cccc2ccccc12 [Example 38, 2-methyl-5-morpholino-3-(naphthalen-1-ylmethyl)pyrazolo[1,5-a]pyrimidine-7-carboxamide]
8.00 to 8.90 | 5.30 to 6.00 | Cc1nn2c(O)cc(N3CCOC(C)C3)nc2c1Cc1cccc(C(F)(F)F)c1C (stereo not shown) [Example 2, 2-methyl-3-(2-methyl-3-(trifluoromethyl)benzyl)-5-(2-methylmorpholino)pyrazolo[1,5-a]pyrimidin-7-ol]
8.00 to 8.90 | 5.30 to 6.00 | Cc1c(Cc2cnn3c(O)cc(-c4ccncc4)nc23)cccc1C(F)(F)F [Example 13, 3-(2-methyl-3-(trifluoromethyl)benzyl)-5-(pyridin-4-yl)pyrazolo[1,5-a]pyrimidin-7-ol]
7.00 to 7.90 | 5.30 to 6.00 | Cc1nn2c(-c3nn[nH]n3)cc(N3CCOCC3)nc2c1Cc1cccc(C(F)(F)F)c1C [Example 46, 4-(2-methyl-3-(2-methyl-3-(trifluoromethyl)benzyl)-7-(2H-tetrazol-5-yl)pyrazolo[1,5-a]pyrimidin-5-yl)morpholine]
8.00 to 8.90 | 5.00 to 5.22 | CC1CN(c2cc(O)n3nc(C(F)(F)F)c(Cc4cccc(Cl)c4Cl)c3n2)CCO1 (stereo not shown) [Example 8, 3-(2,3-dichlorobenzyl)-5-(2-methylmorpholino)-2-(trifluoromethyl)pyrazolo[1,5-a]pyrimidin-7-ol]
9.00 to 9.90 | < 4.70 | CCc1nn2c(O)cc(-c3ccncc3)nc2c1Cc1cccc(Cl)c1Cl [Example 31, 3-(2,3-dichlorobenzyl)-2-ethyl-5-(pyridin-4-yl)pyrazolo[1,5-a]pyrimidin-7-ol]
7.00 to 7.90 | < 4.70 | Cc1c(Cc2c(O)nn3c(O)cc(C4CCOCC4)nc23)cccc1C(F)(F)F [Example 19, 3-(2-methyl-3-(trifluoromethyl)benzyl)-5-(tetrahydro-2H-pyran-4-yl)pyrazolo[1,5-a]pyrimidine-2,7-diol]
7.00 to 7.90 | 5.30 to 6.00 | Cc1nn2c(-c3nn[nH]n3)cc(N3CCOCC3)nc2c1Cc1cccc2ccccc12 [Example 47, 4-(2-methyl-3-(naphthalen-1-ylmethyl)-7-(1H-tetrazol-5-yl)pyrazolo[1,5-a]pyrimidin-5-yl)morpholine]
5.90 to 6.90 | < 4.70 | Cc1nn2ccc(C3CCOCC3)nc2c1Cc1cccc(C(F)(F)F)c1C [Example 5, 2-methyl-3-(2-methyl-3-(trifluoromethyl)benzyl)-5-(tetrahydro-2H-pyran-4-yl)pyrazolo[1,5-a]pyrimidine]
7.00 to 7.90 | > 6.00 | Cc1nn2c(N)cc(N3CCOCC3)nc2c1Cc1cccc2ccccc12 [Example 27, 2-methyl-5-morpholino-3-(naphthalen-1-ylmethyl)pyrazolo[1,5-a]pyrimidin-7-amine]
8.00 to 8.90 | 5.00 to 5.22 | Cc1nn2c(-c3nc[nH]n3)cc(N3CCOCC3)nc2c1Cc1cccc(C(F)(F)F)c1C [Example 41, 4-(2-methyl-3-(2-methyl-3-(trifluoromethyl)benzyl)-7-(1H-1,2,4-triazol-3-yl)pyrazolo[1,5-a]pyrimidin-5-yl)morpholine]
